# Experimental data: patent US20220241416A1, “METHODS FOR THE IDENTIFICATION OF SARM1 NADASE ACTIVITY INHIBITORS AND USES THEREOF” (Bar Ilan University, priority 2021, published 2022)
# Entries after “also recorded” stand apart in the source; their conditions may differ. Where two headings read alike, the source gives them in different places.
# What was measured:
# hSARM1 [1] = biological target: T1, hSARM1 (Homo sapiens, UniProt Q6SZW1); assay: HPLC analysis of time dependent NAD+ consumption by hSARM1; type: biochemical; details: 2 mM NAD+ versus 50 μM; porcine brain NADase control not inhibited
# T1 construct: hSARM1w.t; (26ERL . . . GPT724) that was not mutated in E642, was also expressed and isolated; 6xHis (N); TEV cleavage site (N); made in house; host or cells: HEK293F suspension cells
# T1 sequence (Q6SZW1 with tags, fused parts or gaps): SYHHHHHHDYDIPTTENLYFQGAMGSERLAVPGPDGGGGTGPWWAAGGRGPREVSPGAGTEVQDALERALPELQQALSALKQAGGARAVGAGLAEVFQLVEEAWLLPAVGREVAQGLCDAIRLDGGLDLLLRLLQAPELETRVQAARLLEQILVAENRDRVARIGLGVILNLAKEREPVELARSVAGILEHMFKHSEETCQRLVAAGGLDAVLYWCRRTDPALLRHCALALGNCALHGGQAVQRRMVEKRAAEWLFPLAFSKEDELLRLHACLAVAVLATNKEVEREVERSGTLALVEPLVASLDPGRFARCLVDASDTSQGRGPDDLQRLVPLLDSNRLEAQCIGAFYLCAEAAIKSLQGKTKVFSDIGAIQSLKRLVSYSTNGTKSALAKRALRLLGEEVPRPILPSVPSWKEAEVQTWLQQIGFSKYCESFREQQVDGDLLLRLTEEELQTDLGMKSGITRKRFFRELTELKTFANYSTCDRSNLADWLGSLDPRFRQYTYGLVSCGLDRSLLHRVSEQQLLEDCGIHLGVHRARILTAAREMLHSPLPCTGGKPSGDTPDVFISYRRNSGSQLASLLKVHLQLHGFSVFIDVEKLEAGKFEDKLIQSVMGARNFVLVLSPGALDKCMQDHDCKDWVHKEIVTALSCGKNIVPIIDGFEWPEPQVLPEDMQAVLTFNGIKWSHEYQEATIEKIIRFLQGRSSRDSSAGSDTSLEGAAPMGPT
# Description: Purified hSARM1w.t. was first diluted to 800 nM in 25 mM HEPES pH 7.5, 150 mM NaCl, and then mixed in 37° C. with different concentrations of NAD+(in the same buffer) in a 1:1 v/v ratio and incubated for 0, 5 and 30 min. 1:100 (v/v). BSA (NEB Inc. 20 mg/ml) was included, and reactions were stopped by heating at 95° C. for 2 minutes. Where specified, NMN (Sigma-Aldrich-N3501) was added in different concentrations. For control, NAD+ consumption was compared to a commercially available porcine brain NADase 0.025 units/ml (Sigma-Aldrich-N9879).
# HPLC measurements were performed using a Merck Hitachi Elite LaChrom HPLC system equipped with an autosampler, UV detector and quaternary pump. HPLC traces were monitored at 260 nm and integrated using EZChrom Elite software. 10 μL of each sample were injected onto a Waters Spherisorb ODS1 C18 RP HPLC Column (5 μm particle size, 4.6 mm×150 mm ID). HPLC solvents are: A: 100% methanol; B: 120 mM sodium phosphate pH 6.0; C double-distilled water (DDW). The column was pre-equilibrated with B:C mixture ratio of 80:20. Chromatography was performed at room temperature with a flow rate of 1.5 ml/min. Each analysis cycle was 12 min long as follows (A:B:C, v/v): fixed 0:80:20 0-4 min; gradient to 20:80:0 4-6 min; fixed 20:80:0 from 6-9 min. gradient to 0:80:20 from 9-10 min; fixed 0:80:20 from 10-12 min. The NAD+ hydrolysis product ADPR was eluted at the isocratic stage of the chromatography while NAD+ elutes in the methanol gradient stage.
# hSARM1 [2] = biological target: T1, hSARM1; assay: Kinetic parameters of hSARM1, substrate inhibition fit; type: biochemical
# Description: FIG. 14C. […] The kinetic parameters were determined from plots of reaction velocity of NAD+ consumption versus substrate (NAD+) concentration and then fitted to the Michaelis-Menten equation (Km and Vmax) or substrate inhibition equation (Ki) using non-linear curve fit in GraphPad Prism. Kcat was calculated by dividing the Vmax with protein molar concentration.
# For Vmax and Km determination, the NADase activity assay was performed with several different NAD+ substrate concentrations and sampled in constant time points. For each NAD+ concentration, linear increase zone was taken for slope (V0) calculation. All data were than fitted to the Michaelis-Menten equation using non-linear curve fit in GraphPad Prism software. Kcat was calculated by dividing the Vmax with protein molar concentration.
smiles,measurement,setting,value
"NC(=O)c1ccc[n+]([C@@H]2O[C@H](COP(=O)([O-])OP(=O)(O)OC[C@H]3O[C@@H](n4cnc5c(N)ncnc54)[C@H](O)[C@@H]3O)[C@@H](O)[C@H]2O)c1 [NAD+, Nicotinamide adenine dinucleotide]",substrate inhibition of hSARM1 NAD+ hydrolysis,hSARM1 [1],clearly inhibited; also recorded: tightly inhibited
same,Ki,"hSARM1 [2]; apparent inhibition by substrate, read-out: Ki for NAD+, hSARM1",727 µM
same,Ki,"hSARM1 [2]; substrate inhibition equation, read-out: Ki, inhibition by the substrate NAD+, hSARM1",700 µM
